The values below come from ChEMBL document CHEMBL3045089, “Synthesis, spectral studies, antimicrobial and insect antifeedant activities of some substituted styryl 4-fluorophenyl ketones” (2011).

Activity calls are given as the source filed them. The calls are words filed in the database; no cut-off is given here.

The test system of experiment [1] is Achaea janata. The experiment can be described thus: Antifeedant activity against fourth instar larvae of Achaea janata L. on Riclmus cammunls leaves assessed as number of leaf discs consumed in 24 hrs at 200 ppm at 26 +/- 1 degC. Format: functional.
For the next experiment, the system named is Aspergillus niger. Put plainly: Antifungal activity against Aspergillus niger assessed as inhibition zone at 50 ug/ml measured after 72 hrs by drug dilution method. It is filed as functional, organism-based.
The test system of another experiment is Enterococcus faecalis. The experiment can be described thus: Antibacterial activity against Enterococcus faecalis assessed as inhibition zone at 250 ug/ml measured after 24 to 45 hrs by disk diffusion method. It is filed as functional. (A growth-free zone around the sample is the usual read-out of agar diffusion tests.)
Another experiment deals with Proteus vulgaris. Put plainly: Antibacterial activity against Proteus vulgaris assessed as inhibition zone at 250 ug/ml measured after 24 to 45 hrs by disk diffusion method. It is filed as functional.
For a further experiment, the system named is Klebsiella. The experiment can be described thus: Antibacterial activity against Klebsiella species assessed as inhibition zone at 250 ug/ml measured after 24 to 45 hrs by disk diffusion method. It is filed as functional.
The test system of a further experiment is Pseudomonas. The experiment can be described thus: Antibacterial activity against Pseudomonas assessed as inhibition zone at 250 ug/ml measured after 24 to 45 hrs by disk diffusion method. Format: functional.
Another experiment concerns Staphylococcus aureus. The experiment can be described thus: Antibacterial activity against Staphylococcus aureus assessed as inhibition zone at 250 ug/ml measured after 24 to 45 hrs by disk diffusion method. Format: functional.
A further experiment deals with Escherichia coli. Put plainly: Antibacterial activity against Escherichia coli assessed as inhibition zone at 250 ug/ml measured after 24 to 45 hrs by disk diffusion method. It is filed as functional.
For the next experiment, the system named is Penicillium. Put plainly: Antifungal activity against Penicillium assessed as inhibition zone at 50 ug/ml measured after 72 hrs by drug dilution method. Format: functional, organism-based.
Another experiment relates to Candida albicans. Put plainly: Antifungal activity against Candida albicans assessed as inhibition zone at 250 ug/ml measured after 72 hrs by disk diffusion method. Format: functional, organism-based.
Experiment [2] has as its system Achaea janata. The experiment can be described thus: Antifeedant activity against fourth instar larvae of Achaea janata L. on Riclmus cammunls leaves assessed as number of leaf discs consumed in 24 hrs at 150 ppm at 26 +/- 1 degC. It is filed as functional.
Experiment [3] concerns Achaea janata. Put plainly: Antifeedant activity against fourth instar larvae of Achaea janata L. on Riclmus cammunls leaves assessed as number of leaf discs consumed in 24 hrs at 100 ppm at 26 +/- 1 degC. It is filed as functional.
Experiment [4] concerns Achaea janata. The experiment can be described thus: Antifeedant activity against fourth instar larvae of Achaea janata L. on Riclmus cammunls leaves assessed as number of leaf discs consumed in 24 hrs at 50 ppm at 26 +/- 1 degC. It is filed as functional.

Consider `Cc1ccc(/C=C/C(=O)c2ccc(F)cc2)cc1`, for which the Activity with Achaea janata [1] is 9; in the experiment with Proteus vulgaris, 8 mm; with Klebsiella, 8 mm; in the experiment with Pseudomonas it was 8 mm; in the experiment on Staphylococcus aureus, 13 mm; with Escherichia coli it was 8 mm. The outcome with Aspergillus niger and in the experiment on Enterococcus faecalis was inactive.
Take `COc1ccc(/C=C/C(=O)c2ccc(F)cc2)cc1`: the Activity stood at 9 with Achaea janata [1]; 20 mm in the experiment with Enterococcus faecalis; 13 mm with Proteus vulgaris; 13 mm with Klebsiella; 13 mm in the experiment with Pseudomonas; 13 mm with Staphylococcus aureus. Further, the Activity in the experiment on Escherichia coli turned out to be 13 mm. In addition, the inhibition result in the experiment on Penicillium and in the experiment on Candida albicans was “Active” in each case.
As to `O=C(/C=C/c1ccc(Br)cc1)c1ccc(F)cc1`, the Activity is 0.5 in the experiment with Achaea janata [1]; 20 mm in the experiment with Enterococcus faecalis; 13 mm in the experiment on Proteus vulgaris; 20 mm with Klebsiella; 13 mm in the experiment with Pseudomonas; 20 mm with Staphylococcus aureus. In addition, the Activity with Escherichia coli was 20 mm. Besides, the inhibition result in the experiment with Aspergillus niger, in the experiment with Penicillium and in the experiment with Candida albicans was “Active” throughout.
As for `CN(C)c1ccc(/C=C/C(=O)c2ccc(F)cc2)cc1`, the Activity in the experiment with Achaea janata [1] is listed as 9; with Proteus vulgaris it was 13 mm; in the experiment on Klebsiella, 13 mm; in the experiment with Pseudomonas, 20 mm; with Staphylococcus aureus it was 20 mm; in the experiment on Escherichia coli it was 20 mm. Moreover, the inhibition result in the experiment with Aspergillus niger and with Penicillium was “Active” in each case. Also, the outcome in the experiment on Enterococcus faecalis was inactive.
Take `O=C(/C=C/c1ccccc1)c1ccc(F)cc1`: the Activity in the experiment with Achaea janata [1] is reported as 8; in the experiment with Proteus vulgaris, 8 mm; in the experiment with Klebsiella, 8 mm; in the experiment on Pseudomonas, 8 mm; in the experiment on Staphylococcus aureus, 13 mm; in the experiment with Escherichia coli, 8 mm. Besides, the result in the experiment with Aspergillus niger, in the experiment on Penicillium, with Candida albicans and with Enterococcus faecalis was inactive.
Consider `O=C(/C=C/c1cccc([N+](=O)[O-])c1)c1ccc(F)cc1`, for which the Activity in the experiment with Achaea janata [1] is given as 10; in the experiment with Proteus vulgaris, 13 mm; in the experiment on Klebsiella, 13 mm; in the experiment with Pseudomonas, 13 mm; in the experiment with Staphylococcus aureus it was 13 mm; in the experiment on Escherichia coli, 13 mm. In addition, the result in the experiment with Aspergillus niger, in the experiment with Penicillium, in the experiment on Candida albicans and in the experiment with Enterococcus faecalis was inactive.
In the case of `O=C(/C=C/c1ccc(Cl)cc1)c1ccc(F)cc1`, the Activity in the experiment on Achaea janata [2] is given as 0; in the experiment with Achaea janata [3] it was 0.05; in the experiment with Achaea janata [4], 0.1; with Achaea janata [1], 0.1; with Proteus vulgaris, 13 mm; in the experiment with Klebsiella, 13 mm. Also, the Activity in the experiment with Pseudomonas, in the experiment with Staphylococcus aureus and with Escherichia coli was 13 mm each time. Moreover, the result in the experiment with Aspergillus niger, in the experiment with Penicillium and with Enterococcus faecalis was inactive.
For `O=C(/C=C/c1cccc(Cl)c1)c1ccc(F)cc1`, the Activity with Achaea janata [1] is given as 0.4; in the experiment with Proteus vulgaris it was 13 mm; with Klebsiella, 13 mm; in the experiment with Pseudomonas it was 13 mm; with Staphylococcus aureus, 13 mm; with Escherichia coli, 13 mm. The outcome in the experiment on Candida albicans and in the experiment on Enterococcus faecalis was inactive.
Take `O=C(/C=C/c1ccccc1[N+](=O)[O-])c1ccc(F)cc1`: the Activity is listed as 12 in the experiment on Achaea janata [1]; 13 mm in the experiment on Proteus vulgaris; 13 mm in the experiment with Klebsiella; 13 mm with Pseudomonas; 13 mm in the experiment with Staphylococcus aureus; 13 mm in the experiment on Escherichia coli. Besides, the result in the experiment with Aspergillus niger, with Penicillium, in the experiment with Candida albicans and with Enterococcus faecalis was inactive.
